The record followed here is patent publication US20240285785A1, “TARGETING SORTILIN” (priority 2022, published 2024).

The data set in a line: Murine serum stability assay. Particulars: male, CD-1, mouse, 37° C., read-out: Murine serum stability assay, T1/2. The class given is in vitro ADME, mouse (CD-1). The procedure:
Serum was drawn from male CD-1 mice by Pharmidex. Lyophilized peptides were solubilized in DMSO and then further diluted into male mouse (CD-1) serum at 37° C. in duplicates. The reaction was incubated at 37° C. and samples extracted at 6 time points: 0, 0.16, 0.5, 1, 3, and 6 hrs. Acetonitrile (ACN) with internal standard (tolbutamide) was added to stop the incubation. Samples were centrifuged, and the supernatant was analyzed by HPLC-MS/MS for the parent compound.

The mark [1] stands for this setting: mouse serum, male CD-1 mouse serum.

Like-named read-outs stand apart in the source and are kept apart here.

Turning to `CCCC[C@@H]1NC(=O)[C@@H](NC(=O)[C@H](CCC(N)=O)NC(=O)[C@H](C)NC(C)=O)CSSC[C@@H](C(=O)N[C@@H](CCCNC(=N)N)C(=O)N[C@@H](CCC(N)=O)C(=O)N[C@H](C(=O)N[C@@H](CC(C)(C)C)C(=O)O)C(C)(C)C)NC(=O)[C@H](C)NC(=O)[C@H](CCCNC(=N)N)NC(=O)[C@H](CC(N)=O)NC(=O)[C@H](CCCNC(=N)N)NC(=O)CNC1=O` [Arb_cyclic_C5], under setting [1], the half-life turned out to be 46.1 min.

Take `CC(=O)N[C@@H](Cc1c[nH]cn1)C(=O)N[C@@H](CC(N)=O)C(=O)N[C@@H](Cc1ccccc1)C(=O)N[C@@H](Cc1ccc(O)cc1)C(=O)N[C@H]1CSSC[C@@H](C(=O)N[C@@H](CCC(N)=O)C(=O)N[C@@H](CCCNC(=N)N)C(=O)N[C@@H](CCC(N)=O)C(=O)N[C@H](C(=O)N[C@@H](CC(C)(C)C)C(=O)O)C(C)(C)C)NC(=O)[C@H](Cc2c[nH]cn2)NC(=O)[C@H](CCCCN)NC(=O)[C@H](CCCNC(=N)N)NC1=O` [Arb_cyclic_C22]: the half-life under setting [1] worked out at 58.8 min.

Take `CCCC[C@H](NC(=O)[C@@H]1CSSC[C@H](NC(=O)[C@H](Cc2c[nH]cn2)NC(=O)[C@H](Cc2ccccc2)NC(=O)[C@H](CC(N)=O)NC(=O)[C@H](CCCNC(=N)N)NC(C)=O)C(=O)N[C@@H](CCCNC(=N)N)C(=O)N[C@@H](C)C(=O)N[C@@H](CCC(N)=O)C(=O)N1)C(=O)N[C@@H](CCCNC(=N)N)C(=O)N[C@@H](CCC(N)=O)C(=O)N[C@H](C(=O)N[C@@H](CC(C)(C)C)C(=O)O)C(C)(C)C` [Arb_cyclic_D21]: the half-life under setting [1] is 13.5 min.

Turning to `CCCC[C@@H]1NC(=O)[C@H](CCCCN)NC(=O)[C@H](CCCNC(=N)N)NC(=O)[C@@H](NC(=O)[C@H](Cc2ccccc2)NC(=O)[C@@H](NC(=O)[C@H](CC(N)=O)NC(=O)[C@H](CCCNC(=N)N)NC(C)=O)[C@@H](C)CC)CSSC[C@@H](C(=O)N[C@@H](CCC(=O)O)C(=O)N[C@@H](CCCNC(=N)N)C(=O)N[C@@H](CCC(N)=O)C(=O)N[C@H](C(=O)N[C@@H](CC(C)(C)C)C(=O)O)C(C)(C)C)NC1=O` [Arb_cyclic_D24, RNIFCRK(Nle)CERQ(B13)(F02)], under “serum”, the half-life was found to be 80.7 min.

As to `CC(=O)N[C@@H](CCC(=O)O)C(=O)N[C@@H](Cc1c[nH]c2ccccc12)C(=O)N[C@H]1CSSC[C@@H](C(=O)N[C@@H](CCCNC(=N)N)C(=O)N[C@@H](CCC(N)=O)C(=O)N[C@H](C(=O)N[C@@H](CC(C)(C)C)C(=O)O)C(C)(C)C)NC(=O)[C@H]([C@@H](C)O)NC(=O)[C@@H]2CCCN2C(=O)[C@H](Cc2c[nH]cn2)NC(=O)[C@H](CC(N)=O)NC(=O)[C@H](Cc2c[nH]cn2)NC(=O)[C@H](CC(C)C)NC(=O)CNC1=O` [Arb_cyclic_F3], the half-life under setting [1] is 173 min.

Take `CC(=O)N[C@@H](CCCNC(=N)N)C(=O)N[C@@H](CC(=O)O)C(=O)N[C@H]1CSSC[C@@H](C(=O)N[C@@H](CCCNC(=N)N)C(=O)N[C@@H](CCC(N)=O)C(=O)N[C@H](C(=O)N[C@@H](CC(C)(C)C)C(=O)O)C(C)(C)C)NC(=O)[C@@H]2CCCN2C(=O)[C@@H]2CCCN2C(=O)[C@H](C)NC(=O)[C@H](CCCNC(=N)N)NC(=O)[C@H](CC(C)C)NC(=O)[C@H](CO)NC(=O)[C@H](C)NC1=O` [Arb_cyclic_G2]: the half-life under setting [1] came out at 20.8 min.

On to `CC(=O)N[C@@H](CCCNC(=N)N)C(=O)N[C@@H](CC(=O)O)C(=O)N[C@H]1CSSC[C@@H](C(=O)N[C@@H](CCCNC(=N)N)C(=O)N[C@@H](CCC(N)=O)C(=O)N[C@H](C(=O)N[C@@H](CC(C)(C)C)C(=O)O)C(C)(C)C)NC(=O)[C@H](C(C)C)NC(=O)[C@H](CCCCN)NC(=O)[C@H](C)NC(=O)[C@H](CCCNC(=N)N)NC(=O)[C@H](CC(C)C)NC(=O)[C@H](CO)NC(=O)[C@@H]2CCCN2C1=O` [Arb_cyclic_G4], for which the half-life under setting [1] worked out at 38.5 min.

As to `CCCC[C@@H]1NC(=O)[C@H](CCCNC(=N)N)NC(=O)[C@H](CC(C)C)NC(=O)[C@H](CO)NC(=O)[C@H](C(C)C)NC(=O)[C@@H](NC(=O)[C@H](CC(=O)O)NC(=O)[C@H](CCCNC(=N)N)NC(C)=O)CSSC[C@@H](C(=O)N[C@@H](CCCNC(=N)N)C(=O)N[C@@H](CCC(N)=O)C(=O)N[C@H](C(=O)N[C@@H](CC(C)(C)C)C(=O)O)C(C)(C)C)NC(=O)[C@H](C(C)C)NC(=O)[C@H](Cc2c[nH]cn2)NC1=O` [Arb_cyclic_G5, RDCVSLR(Nle)HVCRQ(B13)(F02)], the half-life under setting [1] stood at 95.2 min.

For `CC[C@H](C)[C@@H]1NC(=O)[C@@H](NC(=O)CNC(=O)[C@H](CCCNC(=N)N)NC(C)=O)CSSC[C@@H](C(=O)N[C@@H](CCCNC(=N)N)C(=O)N[C@@H](CCC(N)=O)C(=O)N[C@H](C(=O)N[C@@H](CC(C)(C)C)C(=O)O)C(C)(C)C)NC(=O)[C@H](C)NC(=O)[C@H](CC(=O)O)NC(=O)[C@H](CCC(N)=O)NC(=O)[C@H](CCCNC(=N)N)NC(=O)[C@H](CCCNC(=N)N)NC(=O)[C@@H]2CCCN2C1=O` [Arb_cyclic_G7], the half-life under setting [1] turned out to be 9.26 min.

In the case of `CCCC[C@H](NC(=O)[C@H](CCCNC(=N)N)NC(C)=O)C(=O)N[C@H]1CSSC[C@@H](C(=O)N[C@@H](CCCNC(=N)N)C(=O)N[C@@H](CCC(N)=O)C(=O)N[C@H](C(=O)N[C@@H](CC(C)(C)C)C(=O)O)C(C)(C)C)NC(=O)[C@H](C)NC(=O)[C@@H]2CCCN2C(=O)[C@H](CO)NC(=O)[C@H](CCCNC(=N)N)NC(=O)[C@H]([C@@H](C)CC)NC(=O)[C@@H]2CCCN2C(=O)CNC1=O` [Arb_cyclic_G10], under setting [1], the half-life worked out at 112 min.

Regarding `CCCC[C@@H]1NC(=O)[C@H](CCCNC(=N)N)NC(=O)[C@H](Cc2c[nH]cn2)NC(=O)[C@H]([C@@H](C)O)NC(=O)[C@H]([C@@H](C)O)NC(=O)[C@@H](NC(=O)[C@H](CO)NC(=O)[C@H](CCCNC(=N)N)NC(C)=O)CSSC[C@@H](C(=O)N[C@@H](CCCNC(=N)N)C(=O)N[C@@H](CCC(N)=O)C(=O)N[C@H](C(=O)N[C@@H](CC(C)(C)C)C(=O)O)C(C)(C)C)NC(=O)[C@H]([C@@H](C)O)NC(=O)[C@H](C)NC1=O` [Arb_cyclic_G14, RSCTTHR(Nle)ATCRQ(B13)(F02)], the half-life under setting [1] is 50.9 min.

With `CC(=O)N[C@@H](CCCNC(=N)N)C(=O)N[C@H](C(=O)N[C@H]1CSSC[C@@H](C(=O)N[C@@H](CCCNC(=N)N)C(=O)N[C@@H](CCC(N)=O)C(=O)N[C@H](C(=O)N[C@@H](CC(C)(C)C)C(=O)O)C(C)(C)C)NC(=O)[C@H](C)NC(=O)[C@@H]2CCCN2C(=O)[C@H](CC(N)=O)NC(=O)[C@H](CCCNC(=N)N)NC(=O)[C@H](CC(C)C)NC(=O)[C@H](Cc2c[nH]cn2)NC(=O)[C@H](CC(N)=O)NC1=O)[C@@H](C)O` [Arb_cyclic_G15], where the note is “serum”, the half-life amounted to 19.3 min.

Turning to `CCCC[C@@H]1NC(=O)[C@H](CCCNC(=N)N)NC(=O)[C@H](Cc2c[nH]cn2)NC(=O)[C@H](CC(N)=O)NC(=O)[C@H](C)NC(=O)[C@@H](NC(=O)[C@@H](NC(=O)[C@H](CCCNC(=N)N)NC(C)=O)C(C)C)CSSC[C@@H](C(=O)N[C@@H](CCCNC(=N)N)C(=O)N[C@@H](CCC(N)=O)C(=O)N[C@H](C(=O)N[C@@H](CC(C)(C)C)C(=O)O)C(C)(C)C)NC(=O)[C@H]([C@@H](C)O)NC(=O)[C@H](CC(N)=O)NC1=O` [Arb_cyclic_G16, RVCANHR(Nle)NTCRQ(B13)(F02)], the half-life (serum) was determined as 11.2 min.

As to `CCCC[C@@H]1NC(=O)[C@H](CCCNC(=N)N)NC(=O)[C@H](CCC(N)=O)NC(=O)[C@H](CC(N)=O)NC(=O)[C@H](CCC(=O)O)NC(=O)[C@@H](NC(=O)[C@H](Cc2c[nH]c3ccccc23)NC(=O)[C@H](CCCNC(=N)N)NC(C)=O)CSSC[C@@H](C(=O)N[C@@H](CCCNC(=N)N)C(=O)N[C@@H](CCC(N)=O)C(=O)N[C@H](C(=O)N[C@@H](CC(C)(C)C)C(=O)O)C(C)(C)C)NC(=O)[C@H](C(C)C)NC(=O)[C@H]([C@@H](C)O)NC1=O` [Arb_cyclic_G22, RWCENQR(Nle)TVCRQ(B13)(F02)], the half-life under setting [1] is 49.2 min.

Turning to `CCCC[C@@H]1NC(=O)[C@H](CCCNC(=N)N)NC(=O)[C@H](CCCNC(=N)N)NC(=O)[C@H](CC(N)=O)NC(=O)[C@H](CCC(=O)O)NC(=O)[C@@H](NC(=O)[C@H](Cc2c[nH]c3ccccc23)NC(=O)[C@H](CCCNC(=N)N)NC(C)=O)CSSC[C@@H](C(=O)N[C@@H](CCCNC(=N)N)C(=O)N[C@@H](CCC(N)=O)C(=O)N[C@H](C(=O)N[C@@H](CC(C)(C)C)C(=O)O)C(C)(C)C)NC(=O)[C@H]([C@@H](C)O)NC(=O)[C@H](Cc2ccccc2)NC1=O` [Arb_cyclic_G23, RWCENRR(Nle)FTCRQ(B13)(F02)], the half-life under setting [1] stood at 38.1 min.
